Values after ≈ are worked out from the molar mass of the structure shown. Where two headings read alike, the source gives them in different places.
Assays:
[1] = test system: OXA-181 carbapenemase-producing Klebsiella Pneumoniae; test: In vitro synergistic inhibitory concentration (SIC) assay, broth microdilution MIC; format: cell-based; details: for MIC50 / MIC90: Klebsiella pneumoniae; for drug resistance rate / sensitive rate: by the S/R criteria
Description: (§1) The minimum inhibitory concentration (MIC) of the compound of formula (I) against clinically isolated carbapenemase-producing strains was determined by the broth microdilution method.
(§2) 1. Drug susceptibility test: the MIC of commonly used antibacterial drugs against clinically isolated bacteria was determined by the broth microdilution method according to the antimicrobial susceptibility test method described in the 2016 edition of the U.S. Clinical and Laboratory Standards Institute (CLSI) document.
2. […]
(§3) 4. Quality control strains: the quality control strains for the drug susceptibility test included Escherichia coli ATCC 25922 and ATCC 35218.

[2] = test system: NDM-1 carbapenemase-producing Klebsiella Pneumoniae; test: as above; format: cell-based; details: for MIC50 / MIC90: Klebsiella pneumoniae; for MIC50 / MIC90 / drug resistance rate / sensitive rate / MIC range: NDM-1, 8 strains; for MIC50 / MIC90 / MIC range: enzyme inhibitor fixed at 4 g/mL (so in the source); for drug resistance rate / sensitive rate: by the S/R criteria
Description: as §1, §2
(§4) 2. Strains: 8 KPC-2 carbapenemase-producing strains, 8 NDM-1 metalloenzyme-producing strains, 6 OXA carbapenemase-producing strains, and all strains were clinically isolated Klebsiella pneumoniae.
as §3

[3] = test system: KPC-2 carbapenemase-producing Klebsiella Pneumoniae; test: as above; format: cell-based; details: for drug resistance rate / sensitive rate: by the S/R criteria; for MIC50 / MIC90: Klebsiella pneumoniae
Description: as §1, §2, §4, §3

[4] = Study on polymorphism, solvent scheme 1 (suspension); format: physicochemical; details: 40° C. in the dark for 2 days, XRPD
Description: 1. Three samples of about 35 mg of the compound of formula (I) were weighed and placed into 1.5 mL borosilicate glass bottles, respectively, followed by addition of 200 μL of solvent (see Table 2 for the solvent scheme). The obtained mixture was mixed evenly with ultrasound and then placed on a thermostatic oscillator, stirred at 40° C. in the dark for 2 days, and centrifuged quickly. The obtained solid was subjected to XRPD detection (wet product), and then dried in a vacuum dryer at 30° C. for about 15 hours. The obtained dry product was subjected to XPRD detection (dry product).

[5] = pKa of side-chain group; format: physicochemical; details: guanidinoxy group
[6] = Study on polymorphism, solvent scheme 2 (dissolved, evaporated to dryness); format: physicochemical; details: 40° C. 2 days, XRPD
Description: 2. Three samples of about 35 mg of compound of formula (I) were weighed and placed into 1.5 mL borosilicate glass bottles, respectively, followed by addition of 600 μL of a solvent (see Table 3 for the solvent scheme). The obtained mixture was mixed evenly with ultrasound and then placed on a thermostatic oscillator, stirred at 40° C. in the dark for 2 days. Then the samples was placed into a fume hood and evaporated to dryness. The obtained samples were subjected to XRPD detection (wet product). The samples were placed in a vacuum dryer and dried at 30° C. for about 15 hours. The obtained dried samples were subjected to XRPD detection (dry product).

[7] = test system: Klebsiella pneumoniae (ATCC BAA-1705, KPC-2); test: Mouse lung infection model; format: in vivo; details: female CD-1 mice, ip, with ceftazidime, FIG. 5
Description: Female CD-1 mice of about 7 weeks old, weighing 26-28 g; cyclophosphamide was injected at a dose of 150 mg/kg 4 days before infection, and further 100 mg/kg 1 day before infection; the bacteria for infection was Klebsiella pneumoniae (ATCC BAA-1705, KPC-2). The compound of formula (I) and the reference compound OP-0595 were synthesized in the laboratory.
Female CD-1 mice were infected with Klebsiella pneumoniae by intranasal instillation. Each mouse was instilled with 50 μL of bacterial liquid through nasal cavity at a dose of 3.14E+07 CFU per mouse. At 2 h, 4 h, 6 h and 8 h after infection, each group of mice were treated with a corresponding compound or a combination of compounds by intraperitoneal injection.
At 10 h after infection, the mice in groups 1, 2 and 3 were euthanized, and the lungs were taken out and placed in 50 mL centrifuge tubes containing 10 mL of sterile normal saline, the tubes were placed on wet ice and transferred to BSL-2 laboratory for CFU counting. […]
The lungs were ground with an IKA T10 homogenizer (the maximum speed was 20S, repeated once). […] After 24 hours, the plate was taken out and the number of single colonies grown in each homogenate with a gradient dilution on the plate was counted, and the amount of bacterial load in the lung of each mouse was calculated.

[8] = Thermal gravimetric analysis (TGA); format: physicochemical
Description: 1.3 Thermal Gravimetric Analyzer (TGA)
Instrument Model: TA Q5000 thermal gravimetric analyzer
Detection method: samples (2 mg to 5 mg) were placed in a TGA platinum crucible for detection, and heated from room temperature to 210° C. with a heating rate of 10° C./min under the condition of 25 mL/min N2.

[9] = Hygroscopicity by dynamic vapor sorption (DVS); format: physicochemical
Description: 1.4 Dynamic Vapor Sorption (DVS) Instrument model: SMS DVS Advantage dynamic vapor sorption analyzer Detection conditions: samples (10 mg to 15 mg) were placed in a DVS sample tray for detection. The detailed DVS parameters are as follows: Temperature: 25° C. Equilibrium: dm/dt=0.01%/min (shortest: 10 min, longest: 180 min) Drying: 120 minutes at 0% RH RH (%) gradient for testing: 10% RH (%) gradient range for testing: 0%-90%-0% The hygroscopicity was evaluated using the following scales: [table] Experimental Method: a sample (10-15 mg) was placed in a DVS sample tray for testing, and analyzed by dynamic vapor sorption (DVS) method.

[10] = Solubility test of the crystal form A; format: physicochemical; details: thermodynamic from solid, room temperature
Description: Experimental Method: about 2.0 mg sample was weighed and placed into a 1.5 mL borosilicate glass bottle, followed by addition of the following solvents with a pipetting gun respectively, and appropriate ultrasonic treatment was performed for dissolving. The test was carried out at room temperature, and the dissolution was detected by naked eye.

[11] = OXA-181, 7 strains, enzyme inhibitor fixed at 4 g/mL (so in the source)
[12] = KPC-2, 8 strains, enzyme inhibitor fixed at 4 g/mL (so in the source)

CC(C)(O/N=C(\C(=O)N[C@@H]1C(=O)N2C(C(=O)[O-])=C(C[n+]3ccccc3)CS[C@H]12)c1csc(N)n1)C(=O)O [Ceftazidime]
MIC50 [1, 11]: > 128 µg/mL | MIC90 [1, 11]: > 128 µg/mL | drug resistance rate ([1]; OXA-181, 7 strains): 100 | sensitive rate ([1]; OXA-181, 7 strains): 0 | MIC50 [2]: > 128 µg/mL | MIC90 [2]: > 128 µg/mL | drug resistance rate [2]: 100 | sensitive rate [2]: 0 | MIC range [2]: >128 µg/mL | drug resistance rate ([3]; KPC-2, 8 strains): 100 | sensitive rate ([3]; KPC-2, 8 strains): 0 | MIC range [3, 12]: 64 to 128 µg/mL | MIC50 [3, 12]: > 128 µg/mL | MIC90 ([3]; KPC-2, 8 strains, enzyme inhibitor fixed at 4 g/mL (so in the source), read-out: MIC90): > 128 µg/mL

N=C(N)NOCCONC(=O)C1CCC2CN1C(=O)N2OS(=O)(=O)O (stereo not drawn) [the compound of formula (I)]
Crystal form ([4]; Acetone): Crystal form A | Crystal form ([4]; Acetonitrile): Crystal form A | Crystal form ([4]; Cyclohexane): Crystal form A | Crystal form ([4]; Ethanol): Crystal form A | Crystal form ([4]; Ethanol-water (volume ratio 1:1)): Crystal form A | Crystal form ([4]; Ethanol-water (volume ratio 3:1)): Crystal form A | Crystal form ([4]; Ethyl acetate): Crystal form A | Crystal form ([4]; Isopropanol-water (volume ratio 1:1)): Crystal form A | Crystal form ([4]; Methanol): Crystal form A | Crystal form ([4]; Methanol-water (volume ratio 1:1)): Crystal form A | Crystal form ([4]; Methanol-water (volume ratio 3:1)): Crystal form A | Crystal form ([4]; Tetrahydrofuran): Crystal form A | Crystal form ([4]; Water): Crystal form A | pKa [5]: 8.83 | Crystal form ([6]; Acetone-water (volume ratio 1:2)): Crystal form A | Crystal form ([6]; Acetonitrile-water (volume ratio 1:1)): Crystal form A | antibacterial activity (conclusion) ([1]; in combination with an antibiotic, OXA-181 type): strong antibacterial activity | reduction of the amount of bacterial load in the lung versus the reference group of OP-0595 ([7]; at two different doses (25 & 6.25 mpk; 50 & 12.5 mpk)): 0.5-1.5 logs | potency compared with OP-0595 [7]: significantly more potent than the reference compound OP-0595 | inhibitory activity compared with avibactam ([2]; NDM-1 type carbapenemase-producing bacteria): significantly better than that of avibactam | antibacterial activity (conclusion) ([2]; in combination with an antibiotic, NDM-1 type): strong antibacterial activity | antibacterial activity (conclusion) ([3]; in combination with an antibiotic, KPC-2 type): strong antibacterial activity

C[C@@H](O)[C@H]1C(=O)N2C(C(=O)O)=C(S[C@@H]3CN[C@H](C(=O)N(C)C)C3)[C@H](C)[C@H]12 [Meropenem]
MIC50 [1, 11]: 0.5 µg/mL | MIC90 [1, 11]: 2 µg/mL | drug resistance rate ([1]; OXA-181, 7 strains): 0 | sensitive rate ([1]; OXA-181, 7 strains): 85.7 | MIC range [1, 11]: 0.5 to 2 µg/mL | MIC50 [2]: 4 µg/mL | MIC90 [2]: 32 µg/mL | drug resistance rate [2]: 75 | sensitive rate [2]: 0 | MIC range [2]: 2 to 32 µg/mL | drug resistance rate ([3]; KPC-2, 8 strains): 100 | sensitive rate ([3]; KPC-2, 8 strains): 0 | MIC90 [3]: 128 µg/mL | MIC50 [3, 12]: 64 µg/mL

C[C@H]1[C@H](NC(=O)/C(=N\OC(C)(C)C(=O)O)c2csc(N)n2)C(=O)N1S(=O)(=O)O [Aztreonam]
MIC50 [2]: 64 µg/mL

N=C(N)NOCCONC(=O)C1CCC2CN1C(=O)N2OS(=O)(=O)O (stereo not drawn)
thermal stability ([8]; TGA): good thermal stability | TGA weight loss ([8]; heated to 194.61° C.): 0.5689% | hygroscopic weight gain ΔW ([9]; DVS, 25° C./80% RH): 0.2910% | hygroscopicity scale ([9]; DVS, 25° C./80% RH): low hygroscopicity | crystal form after DVS (XRPD) ([9]; after DVS test): the crystal form has not changed | solubility ([10]; aqueous with cosolvent or surfactant or cyclodextrin, Acetone-water (1:2)): 20500 to 34200 µg/mL (≈ 53.6 to 89.4 mM) | solubility ([10]; aqueous with cosolvent or surfactant or cyclodextrin, Acetonitrile-water (1:1)): > 103000 µg/mL | solubility ([10]; aqueous with cosolvent or surfactant or cyclodextrin, Ethanol-water (1:1)): 10100 to 20200 µg/mL (≈ 26.4 to 52.8 mM) | solubility ([10]; aqueous with cosolvent or surfactant or cyclodextrin, Ethanol-water (3:1)): < 2000 µg/mL | solubility ([10]; aqueous with cosolvent or surfactant or cyclodextrin, Isopropanol-water (1:1)): 6800 to 10200 µg/mL (≈ 17.8 to 26.7 mM) | solubility ([10]; aqueous with cosolvent or surfactant or cyclodextrin, Methanol-water (1:1)): 4100 to 5200 µg/mL (≈ 10.7 to 13.6 mM) | solubility ([10]; aqueous with cosolvent or surfactant or cyclodextrin, Methanol-water (3:1)): 2100 to 2600 µg/mL (≈ 5.49 to 6.8 mM) | solubility ([10]; organic solvent or mixture, 1,4-Dioxane): < 2100 µg/mL | solubility ([10]; organic solvent or mixture, 2-Methyltetrahydrofuran): < 2000 µg/mL | solubility ([10]; organic solvent or mixture, Acetone): < 1900 µg/mL | solubility ([10]; organic solvent or mixture, Acetonitrile): < 1900 µg/mL | solubility ([10]; organic solvent or mixture, Butanone): < 2000 µg/mL | solubility ([10]; organic solvent or mixture, Cyclohexane): < 2100 µg/mL | solubility ([10]; organic solvent or mixture, Ethanol): < 1900 µg/mL | solubility ([10]; organic solvent or mixture, Ethyl acetate): < 2000 µg/mL | solubility ([10]; organic solvent or mixture, Isopropanol): < 2000 µg/mL | solubility ([10]; organic solvent or mixture, Isopropyl acetate): < 2000 µg/mL | solubility ([10]; organic solvent or mixture, Methanol): < 1900 µg/mL | solubility ([10]; organic solvent or mixture, Methyl isobutyl ketone): < 2000 µg/mL | solubility ([10]; organic solvent or mixture, Methyl tert-butyl ether): < 2000 µg/mL | solubility ([10]; organic solvent or mixture, Tetrahydrofuran): < 2000 µg/mL | solubility ([10]; organic solvent or mixture, Toluene): < 2000 µg/mL | solubility ([10]; organic solvent or mixture, n-Butanol): < 2000 µg/mL | solubility ([10]; organic solvent or mixture, n-Heptane): < 2000 µg/mL | solubility ([10]; Water): 10200 to 20400 µg/mL (≈ 26.7 to 53.4 mM)

Reference: patent publication US11180501B2, “Crystal form of β-lactamase inhibitor and preparation method therefor” (priority 2017, dated 2021)
